Measured values reported in the supplement of paper PMC10307832.

Key:
Assay in all cases: relative viability (nuclei count vs DMSO), 5 days (fraction); higher = more cells survive
Carfilzomib + Tozasertib = compound: CC(C)C[C@H](NC(=O)[C@H](CCc1ccccc1)NC(=O)CN1CCOCC1)C(=O)N[C@@H](Cc1ccccc1)C(=O)N[C@@H](CC(C)C)C(=O)[C@@]1(C)CO1 [Carfilzomib] + Cc1cc(Nc2cc(N3CCN(C)CC3)nc(Sc3ccc(NC(=O)C4CC4)cc3)n2)n[nH]1 [Tozasertib] (partner 0.1 µM)
Summary of the method: (§1)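 Relative viability was taken as the ratio of nuclei in treated wells to nuclei in vehicle wells. Lung cancer cell lines in 1536-well plates received compounds by pin tool one day after seeding, either one drug alone or a fixed anchor-drug dose plus five library-drug doses (not always all listed) in √10 steps. Nuclei were counted on 4× images after 5 days of treatment, and values are medians of duplicate plates.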

Crizotinib + Trametinib = compound: C[C@@H](Oc1cc(-c2cnn(C3CCNCC3)c2)cnc1N)c1c(Cl)ccc(F)c1Cl [Crizotinib] + CC(=O)Nc1cccc(-n2c(=O)n(C3CC3)c(=O)c3c(Nc4ccc(I)cc4F)n(C)c(=O)c(C)c32)c1 [Trametinib] (partner 0.02 µM)
Summary of the method: as §1

[1] = compound: CC(C)C[C@H](NC(=O)[C@H](CCc1ccccc1)NC(=O)CN1CCOCC1)C(=O)N[C@@H](Cc1ccccc1)C(=O)N[C@@H](CC(C)C)C(=O)[C@@]1(C)CO1 [Carfilzomib] + CC(=O)c1c(C)c2cnc(Nc3ccc(N4CCNCC4)cn3)nc2n(C2CCCC2)c1=O [Palbociclib] (partner 0.5 µM)
Summary of the method: as §1

Carfilzomib + Pictilisib = compound: CC(C)C[C@H](NC(=O)[C@H](CCc1ccccc1)NC(=O)CN1CCOCC1)C(=O)N[C@@H](Cc1ccccc1)C(=O)N[C@@H](CC(C)C)C(=O)[C@@]1(C)CO1 [Carfilzomib] + CS(=O)(=O)N1CCN(Cc2cc3nc(-c4cccc5[nH]ncc45)nc(N4CCOCC4)c3s2)CC1 [Pictilisib] (partner 1 µM)
Summary of the method: as §1

Cell Line	relative viability (Carfilzomib + Tozasertib; first compound 0.001 µM)	relative viability (Carfilzomib + Tozasertib; first compound 0.003162 µM)	relative viability (Carfilzomib + Tozasertib; first compound 0.01 µM)	relative viability (Carfilzomib + Tozasertib; first compound 0.03162 µM)	relative viability (Carfilzomib + Tozasertib; first compound 0.1 µM)	relative viability (Crizotinib + Trametinib; first compound 0.01 µM)	relative viability (Crizotinib + Trametinib; first compound 0.03162 µM)	relative viability (Crizotinib + Trametinib; first compound 0.1 µM)	relative viability (Crizotinib + Trametinib; first compound 0.3162 µM)	relative viability (Crizotinib + Trametinib; first compound 1 µM)	relative viability ([1]; first compound 0.001 µM)	relative viability ([1]; first compound 0.003162 µM)	relative viability ([1]; first compound 0.01 µM)	relative viability ([1]; first compound 0.03162 µM)	relative viability ([1]; first compound 0.1 µM)	relative viability (Carfilzomib + Pictilisib; first compound 0.001 µM)	relative viability (Carfilzomib + Pictilisib; first compound 0.003162 µM)	relative viability (Carfilzomib + Pictilisib; first compound 0.01 µM)	relative viability (Carfilzomib + Pictilisib; first compound 0.03162 µM)	relative viability (Carfilzomib + Pictilisib; first compound 0.1 µM)
201T	0.957	1	1.04	0.993	0.754	0.678	0.706	0.747	0.72	0.754	0.355	0.357	0.383	0.345	0.31	0.67	0.659	0.668	0.727	0.666
HCC-366	0.0847	0.132	0.185	0.106	0.0351	0.342	0.388	0.367		0.322	0.374	0.361	0.396	0.327	0.0404	0.129	0.175	0.17	0.312	0.0504
HOP-62	0.37	0.405	0.385	0.19	0.0741	0.353	0.369	0.358	0.407	0.392	0.44	0.496	0.41	0.19	0.0616	0.569	1.11	0.467	0.0638	0.0695
NCI-H1734	0.275	0.289	0.266	0.153	0.0994	0.684	0.621	0.629		0.67	0.346	0.382	0.354	0.315	0.105	0.476	0.501	0.389	0.234	0.127
ChaGo-K-1	0.207	0.236	0.224	0.225	0.157	0.867	0.92	0.876	0.825	0.915	0.926	0.931	0.907	0.313	0.153		1.27	0.839	0.523	0.348
NCI-H2405		0.814	0.828	0.757	0.267	0.537	0.636	0.657	0.619	0.711	0.498	0.527	0.539	0.489	0.136		0.583	0.521	0.321	0.174
NCI-H727	0.708	0.754	0.602	0.438	0.378	0.356	0.427	0.344	0.434	0.381	0.575	0.607	0.628	0.584	0.417	0.32	0.43	0.418	0.215	0.148
SW 1573	0.193	0.253	0.23	0.0683	0.051	0.531	0.473	0.594	0.567	0.615	0.396	0.5	0.235	0.0595	0.0481	0.517	0.512	0.404	0.277	0.0513
HCC-44	0.826	1.05	1.22	0.303	0.157	0.933	1.04	1.03	1.15	1.04	1.02	0.938	0.999	0.999	0.69	0.506	0.674	0.57	0.654	0.166
A-427	0.207	0.236	0.198	0.099	0.103	0.717	0.771	0.724		0.78	0.543	0.56	0.515	0.509	0.188	0.776	0.734	0.632	0.296	0.092
